Measured values taken from PMC12216609, “Inhibitors of eIF1A-ribosome interaction unveil uORF-dependent regulation of translation initiation and antitumor and antiviral effects” (The EMBO Journal, 2025).
Values joined by “and” are separate entries in the source; they are usually repeats but may differ in a detail not shown here. Identical values can stand only once. Like-named read-outs stand apart in the source and are kept apart here.

Tests used:
[1] = tested on: uORF-bearing 5'UTR firefly reporters in HEK293T cells; assay: uORF reinitiation / leaky scanning firefly reporters; conditions: for ff/rl, 46 leaky reporter / ff/rl, 46 reporter / ff/rl, normal reporter: single replicates, not normalized to DMSO
From the text: (M) The reference and uORF-bearing reporters were transfected to HEK293T cells together with RL, which served to normalize translation efficiency. The reporter activities are represented as firefly vs RL; n ≥3 independent biological replicates, error bars represent SEM. *P < 0.05, **P < 0.01, Student t test. (N) Firefly Reporters (J) were transfected to HEK293T cells together with normalizing RL. […] Results are represented as firefly vs. RL normalized to DMSO in each biological replicate; n = 4, error bars represent SEM. *P < 0.05, **P < 0.01, Student t test.
In the first and second, we inserted an out-of-frame uAUG 46 or 95 nucleotides before the main ORF, respectively, followed by a downstream stop codon generating an uORF of 10 amino acids. In these constructs, the translation from the main ORF could be either by reinitiation or leaky scanning. In the third construct, this out of frame uAUG lacks a stop codon, causing initiation from the main ORF to exclusively occur via leaky scanning (Fig. 4L). These reporters were transfected into HEK293T cells together with RL luciferase reporter for normalizing transfection efficiency. […] We next examined these reporters in the presence of 1Ais.

eIF1A without NTT = molecular target: T1, eIF1A without NTT (Homo sapiens, UniProt P47813); assay: Fluorescence binding assay with NTT-truncated eIF1A; conditions: for fluorescence ratio, eIF1A Δ NTT: background-corrected, relative to DMSO or lowest 1Ai concentration, replicate columns
T1 construct: His-bdSUMO (cleaved yes); made in house; host or cells: E. coli (BL-21)
T1 sequence (P47813 31-144 limits assumed): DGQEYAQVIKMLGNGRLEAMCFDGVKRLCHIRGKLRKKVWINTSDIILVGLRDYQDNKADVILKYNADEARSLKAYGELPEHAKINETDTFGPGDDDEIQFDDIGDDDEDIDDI

eIF1A without CTT = molecular target: T2, eIF1A without CTT (Homo sapiens, UniProt P47813); format: binding; conditions: for fluorescence ratio, eIF1A Δ CTT: background-corrected, relative to DMSO or lowest 1Ai concentration, replicate columns
T2 construct: His-bdSUMO (cleaved yes); made in house; host or cells: E. coli (BL-21)
T2 sequence (P47813 1-114 limits assumed): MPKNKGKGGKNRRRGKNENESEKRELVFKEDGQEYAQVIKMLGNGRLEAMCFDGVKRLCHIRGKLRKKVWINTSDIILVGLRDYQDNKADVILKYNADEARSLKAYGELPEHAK

NSP1 = NSP1 (Severe acute respiratory syndrome coronavirus 2, UniProt P0DTD1)
eIF1A-RPS10 interaction = molecular target: T3, eIF1A-RPS10 interaction (Homo sapiens, UniProt P46783+P47813); assay: Split-Renilla luciferase eIF1A-RPS10 interaction screen, dose-response; format: biochemical
T3 construct: made in house; host or cells: E. coli BL21 (PRSFduet); unpurified lysate supernatant
T3 sequence (P47813 whole entry, one chain of several): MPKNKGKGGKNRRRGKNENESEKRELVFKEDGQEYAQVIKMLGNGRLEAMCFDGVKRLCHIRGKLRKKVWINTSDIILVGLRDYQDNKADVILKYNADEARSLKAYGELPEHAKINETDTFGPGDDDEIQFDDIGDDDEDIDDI
Procedure, shortened: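 Reconstituted Renilla luciferase activity reports eIF1A-RPS10 binding; loss indicates disruption by compound. Recombinant fusions (eIF1A C-terminus to N-RL; RPS10-ΔN-Renilla) expressed in E. coli BL21, used as sonicated supernatants in Tris/KCl/EDTA buffer, with unfused split-RL halves as controls.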

[2] = tested on: regulatory CUG of SARS-CoV-2 ORF7a 5'UTR in HEK293T cells; format: cell-based
[3] = summary table, read-out: IC50 concentration (µM), IC50 screen

With `O=C(COc1ccccc1[N+](=O)[O-])NCc1ccc(-c2ccc(Br)cc2)o1` [1Ai-4700] the “effect on uORF / leaky scanning reporters” value ([1]; 20uM (1Ai-5175 at 5uM), overnight) was “inhibit the short-distance reinitiation”, the “normalized to DMSO, 46 leaky, average” value ([1]; 46 leaky reporter, average of biological repeats) was 0.994 and the “normalized to DMSO, 46 leaky, biological repeats” value ([1]; 46 leaky reporter, biological repeats 1-4) was 0.989 and 1.082 and 1.159 and 0.746. For the same compound, the “normalized to DMSO, 46 leaky” value ([1]; 46 leaky reporter, single replicates 1-8 (two dates)) was 0.973 and 1.005 and 1.055 and 1.109 and 1.618 and 0.700 and 0.255 and 1.237, the “normalized to DMSO, -46, average” value ([1]; -46 reporter, average of biological repeats) was 0.679 and the “normalized to DMSO, -46, biological repeats” value ([1]; -46 reporter, biological repeats 1-4) was 0.691 and 0.744 and 0.743 and 0.536. The “normalized to DMSO, -46” value ([1]; -46 reporter, single replicates 1-8 (two dates)) was 0.671 and 0.712 and 0.669 and 0.819 and 1.007 and 0.479 and 0.251 and 0.821, the “ff/rl, 46 leaky reporter” value ([1]; experiment 12.3.24) was 3.84E-02 and 3.96E-02 and 4.16E-02 and 4.37E-02 and the “ff/rl, 46 reporter” value ([1]; experiment 12.3.24) was 1.06E-01 (2×) and 1.12E-01 and 1.29E-01. For the same compound, the “ff/rl, normal reporter” value ([1]; experiment 12.3.24) was 2.90E-01 and 2.11E-01 and 2.89E-01 and 2.67E-01, the “ff/rl, 46 leaky reporter” value ([1]; experiment 13.03.24) was 1.47E-02 and 6.33E-03 and 2.31E-03 and 1.12E-02 and the “ff/rl, 46 reporter” value ([1]; experiment 13.03.24) was 2.46E-02 and 1.17E-02 and 6.14E-03 and 2.01E-02. For the same compound, the “ff/rl, normal reporter” value ([1]; experiment 13.03.24) was 3.97E-02 and 5.12E-02 and 7.78E-02 and 1.08E-01, the “reporter activity norm to DMSO, minus46” value ([1]; minus46 reporter, 95nt from uORF to main ORF experiment, Figure 4N source data, replicate experiments, DMSO = 1) was 0.3368 and 0.3707 and the “reporter activity norm to DMSO, minus 95” value ([1]; minus 95 (nt) reporter, 95nt from uORF to main ORF experiment, Figure 4N source data, replicate experiments, DMSO = 1) was 1.361 and 1.106. The “reporter activity norm to DMSO, ref” value ([1]; ref reporter, 95nt from uORF to main ORF experiment, Figure 4N source data, replicate experiments, DMSO = 1) was 0.8256 and 0.6094, the “normalized to DMSO, refference, average” value ([1]; refference reporter, average of biological repeats) was 0.908 and the “normalized to DMSO, refference” value ([1]; refference reporter, single replicates 1-8 (two dates)) was 1.031 and 0.751 and 1.028 and 0.950 and 0.503 and 0.648 and 0.985 and 1.371. The “normalized to DMSO, single replicates” value ([1]; reporter 46, experiment 12.3.24) was 6.71E-01 and 7.12E-01 and 6.69E-01 and 8.19E-01, the “normalize to DMSO, average” value ([1]; reporter 46, experiment 12.3.24, DMSO = 1) was 0.7177 and the “normalized to DMSO, single replicates” value ([1]; reporter 46, experiment 13.3.24) was 1.01E+00 and 4.79E-01 and 2.51E-01 and 8.21E-01. The “normalize to DMSO, average” value ([1]; reporter 46, experiment 13.3.24, DMSO = 1) was 0.6395, the “normalize to DMSO, average” value ([1]; reporter 46 leaky, experiment 12.3.24, DMSO = 1) was 1.036 and the “normalized to DMSO, single replicates” value ([1]; reporter 46 leaky, experiment 13.3.24) was 1.62E+00 and 7.00E-01 and 2.55E-01 and 1.24E+00. For the same compound, the “normalize to DMSO, average” value ([1]; reporter 46 leaky, experiment 13.3.24, DMSO = 1) was 0.9525, the “normalized to DMSO, single replicates” value ([1]; reporter normal (refference), experiment 12.3.24) was 1.03E+00 (2×) and 7.51E-01 and 9.50E-01 and the “normalized to DMSO, single replicates” value ([1]; reporter normal (refference), experiment 13.3.24) was 5.03E-01 and 6.48E-01 and 9.85E-01 and 1.37E+00. For the same compound, the “normalize to DMSO, average” value ([1]; reporter refference, experiment 12.3.24, DMSO = 1) was 0.9399, the “normalize to DMSO, average” value ([1]; reporter refference, experiment 13.3.24, DMSO = 1) was 0.8765 and the “inhibitory effect with extended (long) reinitiation distance” value ([1]; uORF to main ORF distance extended by 49 nt) was “lost”. For the same compound, the “binding to NTT-truncated eIF1A” value (eIF1A without NTT) was “significantly decreased”, the “fluorescence ratio, eIF1A Δ NTT” value (eIF1A without NTT; 1Ai conc. 0.25 uM) was 0.8472 and 0.7714 and the “fluorescence ratio, eIF1A Δ NTT” value (eIF1A without NTT; 1Ai conc. 0.5 uM) was 0.8794 and 0.8467. The “fluorescence ratio, eIF1A Δ NTT” value (eIF1A without NTT; 1Ai conc. 1 uM) was 0.866 and 0.8543, the “fluorescence ratio, eIF1A Δ NTT” value (eIF1A without NTT; 1Ai conc. 2 uM) was 0.8713 and 0.8518 and the “fluorescence ratio, eIF1A Δ NTT” value (eIF1A without NTT; 1Ai conc. 4 uM) was 0.8204 and 0.8417. For the same compound, the “fluorescence ratio, eIF1A Δ NTT” value (eIF1A without NTT; 1Ai conc. 8 uM) was 2.437 and 0.8015, the “fluorescence ratio, eIF1A Δ NTT” value (eIF1A without NTT; 1Ai conc. 16 uM) was 0.7775 and 0.7663 and the “fluorescence ratio, eIF1A Δ NTT” value (eIF1A without NTT; 1Ai conc. 32 uM) was 0.7078 and 0.6935. For the same compound, the “fluorescence ratio, eIF1A Δ NTT” value (eIF1A without NTT; 1Ai conc. 64 uM) was 0.6729 and 0.5628, the “fluorescence ratio, eIF1A Δ NTT” value (eIF1A without NTT; 1Ai conc. 256 uM) was 0.6059 and 0.6683 and the IC50 (eIF1A without NTT; eIF1A Δ NTT, from the titration data, read-out: IC50 (eIF1A Δ NTT titration block)) was 30.2 µM. The IC50 (eIF1A without NTT; summary table, fluorescence binding assay, read-out: IC50 concentration (µM), NTT truncation) was 45.7 µM, the “fluorescence ratio, eIF1A Δ CTT” value (eIF1A without CTT; 1Ai conc. 0.25 uM) was 1.002 and 1.029 and the “fluorescence ratio, eIF1A Δ CTT” value (eIF1A without CTT; 1Ai conc. 0.5 uM) was 0.8837 and 0.9156. For the same compound, the “fluorescence ratio, eIF1A Δ CTT” value (eIF1A without CTT; 1Ai conc. 1 uM) was 0.8554 and 0.8332, the “fluorescence ratio, eIF1A Δ CTT” value (eIF1A without CTT; 1Ai conc. 2 uM) was 0.9021 and 0.8902 and the “fluorescence ratio, eIF1A Δ CTT” value (eIF1A without CTT; 1Ai conc. 4 uM) was 0.8119 and 0.7934. For the same compound, the “fluorescence ratio, eIF1A Δ CTT” value (eIF1A without CTT; 1Ai conc. 8 uM) was 0.6359 and 0.584, the “fluorescence ratio, eIF1A Δ CTT” value (eIF1A without CTT; 1Ai conc. 16 uM) was 0.7372 and 0.671 and the “fluorescence ratio, eIF1A Δ CTT” value (eIF1A without CTT; 1Ai conc. 32 uM) was 0.5663 and 0.5472. The “fluorescence ratio, eIF1A Δ CTT” value (eIF1A without CTT; 1Ai conc. 64 uM) was 0.381 and 0.3897, the “fluorescence ratio, eIF1A Δ CTT” value (eIF1A without CTT; 1Ai conc. 256 uM) was 0.2785 and 0.26 and the IC50 (eIF1A without CTT; eIF1A Δ CTT, from the titration data, read-out: IC50 (eIF1A Δ CTT titration block)) was 30.2 µM. For the same compound, the IC50 (eIF1A without CTT; summary table, fluorescence binding assay, read-out: IC50 concentration (µM), CTT truncation) was 30.2 µM, the “GFP reporter ratio nsp1/gfp, avg” value (NSP1) was 0.4331 and the “GFP reporter ratio nsp1/gfp, rep 1” value (NSP1) was 0.4284. For the same compound, the “GFP reporter ratio nsp1/gfp, rep 2” value (NSP1) was 0.4378, the “gfp signal, mean of duplicate wells” value (NSP1) was 2716 and 2411 and 2645 and the “nsp1 signal, mean of duplicate wells” value (NSP1) was 1163.5 and 1055.5 and 1429.5. For the same compound, the “ratio (nsp1/gfp)” value (NSP1) was 0.428 and 0.438 and 0.540 and the IC50 (eIF1A-RPS10 interaction; [3]) was 11 µM.
With `O=c1cc(CN2CCOCC2)occ1OCCCCCSc1ccnc2cc(C(F)(F)F)ccc12` [1Ai-5730] the “average (inverted)” value ([2]; normalized to DMSO = 1.000, mean of 3 reps) was 0.744, the “CUG/AUG ratio (Renilla/firefly)” value ([2]; overnight) was “decreased the CUG/AUG ratio to variable degrees” and the “FF CTG signal, mean of duplicates” value ([2]; reps 1-3) was 5472.4 and 6803.94 and 6446.76. For the same compound, the “FF vs Rluc” value ([2]; reps 1-3) was 54.969 and 55.654 and 55.147, the “FF vs Rluc, inverted” value ([2]; reps 1-3) was 0.018 and the “Rluc ATG signal, mean of duplicates” value ([2]; reps 1-3) was 2604320 and 3030300 and 3158315. The “normalized to DMSO” value ([2]; reps 1-3, DMSO = 1) was 0.748 and 0.739 and 0.745, the “GFP reporter ratio nsp1/gfp, avg” value (NSP1) was 0.5107 and the “GFP reporter ratio nsp1/gfp, rep 1” value (NSP1) was 0.524. The “gfp signal, mean of duplicate wells” value (NSP1) was 1636.5, the “nsp1 signal, mean of duplicate wells” value (NSP1) was 857.5 and the “ratio (nsp1/gfp)” value (NSP1) was 0.524. It also gave an IC50 (eIF1A-RPS10 interaction; Appendix Table S1, read-out: IC50 from the split RL screen) of 30 µM and an IC50 (eIF1A-RPS10 interaction; [3]) of 24 µM.
